Assay results taken from patent US20190388495A1, “Pharmaceutical Composition for Preventing or Treating Hypersensitivity Immune Disease, and Method for Producing Same” (QURATIS INC., priority 2017, published 2019).

System: plasmacytoid dendritic cells
Assay: IL-10 secretion from plasmacytoid dendritic cells induced with various toll-like receptor agonists, ELISA (Example 3)
Format: cell-based, C57BL/6 mice
Details: stimulated with ODN1826 1 μg/ml, 24 hours; vs non-treatment
Text: In order to check the immune tolerance inducing effect of various toll-like receptor agonists, differentiation into the plasmacytoid dendritic cells was induced by the same method as in Example 1. Ligands listed in Table 2 were used as the toll-like receptor agonist. From the cells obtained after 8 days of culture, the plasmacytoid dendritic cells were separated at a purity equal to or greater than 85% by a plasmacytoid dendritic cell separation kit (Miltenyi Biotec, Auburn, Calif.) and a magnetic cell sorting system (Vario MACS: Miltenyi Biotec, Auburn, Calif.). The separated cells (5×10^5 cells/ml) were inoculated into a 48 well plate. ODN1826 (1 μg/ml) was applied thereto and the cells were cultured for 24 hours. Then, supernatant was separated. The secretion pattern of the immunosuppressive cytokine IL-10 was then checked by ELISA (enzyme linked immunosorbent assay).

Molecule	expression level of IL-10 from plasmacytoid dendritic cells differentiated via treatment with the agonist
CC(C)Cn1cnc2c(N)nc3ccccc3c21 [TLR7 agonist, Imiquimod]	significantly increased
LPS [TLR4 agonist]	significantly increased
Pam3 [TLR2 agonist]	significantly increased
